Where two headings read alike, the source gives them in different places.
Assays:
H1975 cells (DM) = test: H1975 inhibition assay (cell proliferation), Method B; type: cell-based; conditions: cellular proliferation, several runs
A431 cells (WT) = test: A431 inhibition assay (cell proliferation), Method B; type: cell-based, human; conditions: cellular proliferation, several runs
Description: Cell Proliferation Assays—Method B
A431 Inhibition Assay, (Cell Proliferation).
The rest procedure was conducted in the same manner as described above for H1975 cells.

PC9 cells (SM) = test: PC-9 growth inhibition assay (cell proliferation), Method B; type: cell-based, human; conditions: cellular proliferation, several runs
[1] = test system: p-EGFR in PC9 cells (Exon 19 deletion EGFR); test: Exon19 deletion EGFR (activating single mutant) PC-9 cellular autophosphorylation assay; type: cell-based, human; conditions: 2 h treatment, ELISA
Description: (§1) Cellular EGFR Autophosphorylation Assays.
The human lung cell line PC9 (Exon 19 deletion EGFR) is obtained from the American type Culture Collection. […] Cells are grown in a humidified incubator at 37° C. with 5% CO2, Assays to measure cellular phosphorylation of endogenous p-EGFR in cell Iysates are carried out according to the protocol described in the R&D Systems DuoSet IC Human Phospho-EGF R ELISA (R&D Systems catalogue number #DYCI095). 40 μL of cells are seeded (10000 cells/well) in growth medium in Corning black, clear-bottomed 384-well plates and incubated at 37° C., with 5%0/CO2 overnight. […] Plates are incubated for a further 2 h, then following aspiration of medium, 40 μL×lysis buffer is added to each well. Greiner black high bind 384 well plates are coated with capture antibody and then blocked with 3% BSA. Following removal of block, 15 μL of lysate are transferred to the Greiner black high bind 384 well plates and incubated for 2 hours. Following aspiration and washing of the plates with PBS, 20 μL of detection antibody are added and incubated for 2 hours. […] The data obtained with each compound are exported into a suitable software package (such as Origin) to perform curve fitting analysis.

[2] = test system: p-EGFR in H1975 cells (L858R/T790M double mutant EGFR)
[3] = test system: p-EGFR in A431 cells (wild type EGFR, EGF stimulated); test: Wild type EGFR A431 autophosphorylation inhibition assay (ELISA); type: cell-based, human; conditions: 2 h treatment, EGF stimulation 10 min
Description: as §1
Wild Type EGFR A431 Autophosphorylation Inhibition Assay (ELISA).
After 2 hour treatment with test compounds, add 4.5 μL of EGF (1 μg/mL) into each well and stimulate for 10 min. The rest of the procedure was processed in the same manner as described above for H1975 cells.

Wt EGFR = biological target: T1, Wt EGFR (Homo sapiens, UniProt P00533); test: Enzyme assay, IC50 for wt EGFR (Caliper); type: biochemical; conditions: enzyme phosphorylation assay; read-out: EGFR_WT IC50
T1 construct: isolated from A431 human epidermoid carcinoma cells which overexpress EGF receptor; endogenous in cells; host or cells: A431 human epidermoid carcinoma cells (receptor purified on wheat germ agglutinin sepharose)
T1 sequence (P00533 25-1210): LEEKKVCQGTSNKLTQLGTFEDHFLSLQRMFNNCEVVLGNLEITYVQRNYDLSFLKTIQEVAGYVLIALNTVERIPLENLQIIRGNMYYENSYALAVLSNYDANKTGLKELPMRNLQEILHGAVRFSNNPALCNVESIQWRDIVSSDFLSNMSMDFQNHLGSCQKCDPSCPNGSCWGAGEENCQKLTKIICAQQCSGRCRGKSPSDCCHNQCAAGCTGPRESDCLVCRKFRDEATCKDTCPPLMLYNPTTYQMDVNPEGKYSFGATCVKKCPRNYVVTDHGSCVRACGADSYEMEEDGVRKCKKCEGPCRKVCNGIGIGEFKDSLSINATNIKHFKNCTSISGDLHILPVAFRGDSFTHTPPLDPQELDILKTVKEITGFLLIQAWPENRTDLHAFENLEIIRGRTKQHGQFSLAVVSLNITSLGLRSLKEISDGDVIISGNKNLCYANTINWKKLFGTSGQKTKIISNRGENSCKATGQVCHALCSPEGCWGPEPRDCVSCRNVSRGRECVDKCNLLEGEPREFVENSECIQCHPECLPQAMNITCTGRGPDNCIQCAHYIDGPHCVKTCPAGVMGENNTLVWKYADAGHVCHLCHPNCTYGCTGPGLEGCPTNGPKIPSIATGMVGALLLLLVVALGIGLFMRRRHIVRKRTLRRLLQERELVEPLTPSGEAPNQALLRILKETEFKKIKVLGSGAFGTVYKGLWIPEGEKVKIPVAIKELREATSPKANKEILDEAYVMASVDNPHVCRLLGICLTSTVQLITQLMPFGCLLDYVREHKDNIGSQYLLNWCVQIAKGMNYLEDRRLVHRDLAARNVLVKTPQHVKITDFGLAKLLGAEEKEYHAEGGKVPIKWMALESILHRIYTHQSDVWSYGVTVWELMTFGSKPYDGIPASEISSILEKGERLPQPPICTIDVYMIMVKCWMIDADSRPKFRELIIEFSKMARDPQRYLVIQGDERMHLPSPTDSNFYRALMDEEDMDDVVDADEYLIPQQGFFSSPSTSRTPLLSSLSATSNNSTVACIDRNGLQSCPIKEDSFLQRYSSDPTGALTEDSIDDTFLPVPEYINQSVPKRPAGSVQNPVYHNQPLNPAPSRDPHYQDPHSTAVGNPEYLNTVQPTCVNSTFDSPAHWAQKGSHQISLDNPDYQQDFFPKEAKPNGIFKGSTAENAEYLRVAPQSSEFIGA
Description: Purification of Epidermal Growth Factor Receptor Tyrosine Kinase Human EGF receptor tyrosine kinase was isolated from A431 human epidermoid carcinoma cells which overexpress EGF receptor by the following methods. Cells were grown in roller bottles in 50% Delbuco's Modified Eagle and 50% HAM F-12 nutrient media (Gibco) containing 10% fetal calf serum. Approximately 10^9 cells were lysed in two volumes of buffer containing 20 mM 2-(4N-[2-hydroxyethyl]piperazin-1-yl)ethanesulfonic acid (hepes), pH 7.4, 5 mM ethylene glycol bis(2-aminoethyl ether) N,N,N′,N′-tetraacetic acid, 1% Triton X-1OO, 10% glycerol. 0.1 mM sodium orthovanadate, 5 mM sodium fluoride, 4 mM pyrophosphate, 4 mM benzamide, 1 mM dithiothreitol, 80 μg/mL aprotinin, 40 μg/mL leupeptin and 1 mM phenylmethylsulfonyl fluoride. After centrifugation at 25,000×g for 10 minutes, the supernatant was equilibrated for 2 h at […], with 10 mL of wheat germ agglutinin sepharose that was previously equilibrated with 50 mM Hepes, 10% glycerol, 0.1% Triton X-100 and 150 mM NaCl, pH 7.5, (equilibration buffer). Contaminating proteins were washed from the resin with 1M NaCl in equilibration buffer, and the enzyme was eluted with 0.5M N-acetyl-1-D-glucosamine in equilibration buffer, followed by 1 mM urea. The enzyme was eluted with 0.1 mg/ml EGF.
Determination of IC50 Values for Wt EGFR
Dilute all compounds to 500 μM stock solutions in 100% DMSO and make a serial of 4-fold dilution for 10 does. “Max” and “Min” control contain 100% DMSO. “Max” stands for […], “Min” stands for low control without compounds. Transfer 10 μl of compounds to 90 μl of Ix kinase base buffer to make intermediate dilution. Transfer 5 μl of intermediate dilution compounds to the 384-well assay plate, then 10 μl 2.5× enzyme buffer containing (20 nM EGFR, 5 mM DTT, 1× kinase base buffer) were added to assay plate. […] Incubate at RT for 1 hr and 25 μl stop buffer to end up reaction. Collect conversion data from Caliper and conversion data from Caliper program. Fit the data in XLfit to obtain IC50 values.

[4] = test system: PC9 cells (EGFR d746-750 single mutant); test: PC-9 growth inhibition assay (cell proliferation), Method A; type: cell-based, human; conditions: Homo sapiens, PC-9; cellular proliferation, PC9 cells, 72 h, CellTiter-Glo (Table 1); read-out: PC9 IC50 (nM) SM
Description: (§2) Cell Proliferation Assays—Method A
(§3) The final concentration was 4,000 cells/well. Add medium only as low control.
(§4) Day-2: Test compounds were dissolved in DMSO at 0.2 mM (200×).
(§5) Day-5: After 72 hours incubation, remove the plates from incubator and equilibrate at room temperature for 15 minutes. Incubate the CellTiter Glo reagents (Promega, G9243) at 37° C. before the experiment. The buffer was equilibrated to room temperature and used to dissolve the substrate. To determine the cell viability, add 30 μL of CellTiter-Glo reagent into each well to be detected. Then shake the plates at room temperature for 10 min and followed by plate read on Envision (PerkinElmer).
(§6) For estimation of IC50, the luminescence readout are transformed to % Inhibition by applying the following equation: The IC50 was then
(§7) [formula] calculated by fitting in XLFit to a four parameters logistic curve.
PC-9 Growth Inhibition Assay (Cell Proliferation)
The inhibition assay for PC-9 cells was processed in the same manner as described for the H1975 cells.

EGFR_T790M/L858R = EGFR_T790M/L858R (Homo sapiens, UniProt P00533, L858R/T790M); test: Enzyme assay, IC50 for double-mutant EGFR (EGFR_T790M/L858R) (Caliper); type: biochemical; conditions: enzyme phosphorylation assay; read-out: EGFR_L858R/T790 IC50
Sequence of EGFR_T790M/L858R (P00533 25-1210 T790M/L858R): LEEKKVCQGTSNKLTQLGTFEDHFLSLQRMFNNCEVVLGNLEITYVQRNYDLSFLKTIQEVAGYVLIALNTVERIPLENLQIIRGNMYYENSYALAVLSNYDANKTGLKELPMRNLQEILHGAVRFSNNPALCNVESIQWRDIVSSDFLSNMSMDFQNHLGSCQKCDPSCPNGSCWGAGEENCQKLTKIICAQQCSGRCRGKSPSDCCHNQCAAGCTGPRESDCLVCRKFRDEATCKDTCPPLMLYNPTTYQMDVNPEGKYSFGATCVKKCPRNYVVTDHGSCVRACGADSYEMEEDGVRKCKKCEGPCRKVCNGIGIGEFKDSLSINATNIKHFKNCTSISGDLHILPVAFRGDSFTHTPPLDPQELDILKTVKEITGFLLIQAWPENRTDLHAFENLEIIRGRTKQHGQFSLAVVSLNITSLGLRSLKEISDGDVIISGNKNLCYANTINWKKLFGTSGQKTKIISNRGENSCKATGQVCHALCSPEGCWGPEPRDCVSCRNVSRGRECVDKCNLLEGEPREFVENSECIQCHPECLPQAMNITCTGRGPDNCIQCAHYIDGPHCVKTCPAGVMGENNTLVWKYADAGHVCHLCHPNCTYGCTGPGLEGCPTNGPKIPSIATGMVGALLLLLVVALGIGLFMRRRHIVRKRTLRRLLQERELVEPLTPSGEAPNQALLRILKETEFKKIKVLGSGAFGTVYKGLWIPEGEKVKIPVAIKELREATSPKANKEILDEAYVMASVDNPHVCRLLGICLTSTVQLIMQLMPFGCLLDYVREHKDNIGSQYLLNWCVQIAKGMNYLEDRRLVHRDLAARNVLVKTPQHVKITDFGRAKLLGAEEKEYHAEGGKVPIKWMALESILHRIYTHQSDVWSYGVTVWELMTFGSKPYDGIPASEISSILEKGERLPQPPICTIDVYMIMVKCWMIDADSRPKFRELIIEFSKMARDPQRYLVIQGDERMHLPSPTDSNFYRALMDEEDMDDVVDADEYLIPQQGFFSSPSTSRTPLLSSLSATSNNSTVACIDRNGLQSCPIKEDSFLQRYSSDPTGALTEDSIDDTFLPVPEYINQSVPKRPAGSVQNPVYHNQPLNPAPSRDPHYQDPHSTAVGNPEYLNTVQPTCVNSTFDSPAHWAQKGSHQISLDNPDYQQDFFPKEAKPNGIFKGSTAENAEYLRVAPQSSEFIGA
Description: (§8) Using the same technique as described in the previous paragraph, various mutated forms of the epidermal growth factor receptor may be isolated from appropriate cell lines which contain them. For example, the EGFR de1746-750 mutant protein may be extracted from PC-9 cells, and the L858R/T790M double mutant EGFR protein may be isolated from H1975 cells.
Determination of IC50 Values for Double-Mutant EGFR (EGFR_T790M/L858R)
Dilute all compounds to 500 μM stock solutions in 100% DMSO and make a serial of 4-fold dilution for 10 does. “Max” and “Min” control contain 100% DMSO. “Max” stands for […], “Min” stands for low control without compounds. Transfer 10 μl of compounds to 90 μl of 1× kinase base buffer to make intermediate dilution. […] Incubate at RT for 1 hr and 25 μl stop buffer to end up reaction. Collect conversion data from Caliper and conversion data from Caliper program. Fit the data in XLfit to obtain IC50 values.

[5] = test system: LoVo cells (unmutated EGFR wild type); test: LoVo growth inhibition assay (cell proliferation), Method A; type: cell-based; conditions: Homo sapiens, cellular proliferation, 72 h, CellTiter-Glo (Table 1), read-out: LoVo IC50 (nM) WT
Description: as §2
LoVo Growth Inhibition Assay (Cell Proliferation)
The rest of the procedure was carried out in the same manner as described for the H1975 cells.

[6] = test system: NCI-H1975 cells (EGFR L858R/T790 double mutant); test: H1975 inhibition assay (cell proliferation), Method A; type: cell-based; conditions: Homo sapiens; cellular proliferation, NCI-H1975 cells, 72 h, CellTiter-Glo (Table 1); read-out: NCI-H1975 IC50 (nM) DM
Description: as §2
H1975 Inhibition Assay (Cell Proliferation)
as §3, §4, §5, §6, §7

EGFR_d746-750 = EGFR_d746-750 (Homo sapiens, UniProt P00533, DEL746-750); test: Enzyme assay, IC50 for single mutant EGFR_d746-750 (Caliper); type: biochemical; conditions: enzyme phosphorylation assay
Sequence of EGFR_d746-750 (P00533 with tags, fused parts or gaps DEL746-750): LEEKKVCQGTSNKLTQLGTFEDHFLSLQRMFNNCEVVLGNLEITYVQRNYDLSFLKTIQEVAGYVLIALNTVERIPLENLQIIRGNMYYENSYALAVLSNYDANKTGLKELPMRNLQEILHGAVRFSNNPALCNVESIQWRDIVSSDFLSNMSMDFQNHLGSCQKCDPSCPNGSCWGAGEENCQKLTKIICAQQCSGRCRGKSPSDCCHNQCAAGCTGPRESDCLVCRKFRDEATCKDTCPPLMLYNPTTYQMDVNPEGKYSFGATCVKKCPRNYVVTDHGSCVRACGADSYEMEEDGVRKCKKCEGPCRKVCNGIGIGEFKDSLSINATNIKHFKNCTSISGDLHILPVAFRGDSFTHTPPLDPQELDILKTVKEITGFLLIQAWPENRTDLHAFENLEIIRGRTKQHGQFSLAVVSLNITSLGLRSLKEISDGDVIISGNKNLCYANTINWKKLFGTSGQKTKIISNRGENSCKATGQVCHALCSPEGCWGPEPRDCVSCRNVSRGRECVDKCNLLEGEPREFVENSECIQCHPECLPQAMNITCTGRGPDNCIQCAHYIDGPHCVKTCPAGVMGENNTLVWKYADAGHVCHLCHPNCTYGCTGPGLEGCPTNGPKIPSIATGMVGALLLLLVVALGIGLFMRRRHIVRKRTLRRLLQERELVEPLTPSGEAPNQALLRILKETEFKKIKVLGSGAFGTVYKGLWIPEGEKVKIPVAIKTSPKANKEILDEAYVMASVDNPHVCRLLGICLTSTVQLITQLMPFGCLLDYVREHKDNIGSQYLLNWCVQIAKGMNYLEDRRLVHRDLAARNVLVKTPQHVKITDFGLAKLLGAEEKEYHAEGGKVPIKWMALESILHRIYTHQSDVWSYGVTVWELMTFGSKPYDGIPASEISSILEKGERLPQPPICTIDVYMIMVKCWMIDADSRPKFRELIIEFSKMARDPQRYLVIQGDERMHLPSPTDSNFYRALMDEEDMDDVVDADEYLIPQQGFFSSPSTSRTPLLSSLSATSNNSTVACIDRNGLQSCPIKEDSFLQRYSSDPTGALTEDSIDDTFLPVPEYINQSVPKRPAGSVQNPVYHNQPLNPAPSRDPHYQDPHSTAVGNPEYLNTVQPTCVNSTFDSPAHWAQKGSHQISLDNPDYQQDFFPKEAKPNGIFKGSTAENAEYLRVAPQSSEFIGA
Description: as §8
Determination of IC50 Values for Single Mutant EGFR_d746-750
Dilute all compounds to 500 μM stock solutions in 100% DMSO and make a serial of 4-fold dilution for 10 doses. “Max” and “Min” control contain 100% DMSO. “Max” stands for […], “Min” stands for low control without compounds. Transfer 10 μl of compounds to 90 μl of 1× kinase base buffer to make intermediate dilution. […] Incubate at RT for 1 hr and 25 μl stop buffer to end up reaction. Collect conversion data from Caliper and conversion data from Caliper program. Fit the data in XLfit to obtain IC50 values.

Row | Compound | IC50 (Wt EGFR) [nM] | IC50 [4] [nM] | IC50 (EGFR_T790M/L858R) [nM] | IC50 [5] [nM] | IC50 [6] [nM] | IC50 (EGFR_d746-750) [nM] | other results
1 | C=CC(=O)Nc1cc(Nc2nccc(-n3nc(NC(C)C)c4ccccc43)n2)c(OC)cc1N(C)CCN(C)C [Example 43] | – | – | – | – | – | – | IC50 (H1975 cells (DM); Homo sapiens, NCI-H1975, 72 h): 3.96 nM; IC50 (A431 cells (WT); Homo sapiens, A-431, 72 h): 218 nM; IC50 (PC9 cells (SM); Homo sapiens, PC-9, 72 h): 3.3 nM; IC50 ([1]; Homo sapiens, PC-9, 2 h): 10.3 nM; IC50 ([2]; Homo sapiens, NCI-H1975, 2 h, read-out: H1975 IC50 (nM), cellular EGFR autophosphorylation, 2 h treatment, ELISA): 10.2 nM; IC50 ([3]; Homo sapiens, A-431, cellular EGFR autophosphorylation): 73.4 nM
2 | Cc1cc(C(=O)Nc2nc3cccc(Cl)c3n2[C@@H]2CCCCN(C(=O)/C=C/CN(C)C)C2)ccn1 [EGF 816] | – | – | – | – | – | – | IC50 (H1975 cells (DM); 72 h): 77.9 nM; IC50 (A431 cells (WT); 72 h): 2850 nM; IC50 (PC9 cells (SM); 72 h): 67.3 nM; IC50 [1]: 25.4 nM; IC50 ([2]; read-out: H1975 IC50, cellular EGFR autophosphorylation, 2 h treatment, ELISA): 43.7 nM; IC50 ([3]; cellular EGFR autophosphorylation): 276 nM
3 | C=CC(=O)Nc1cc(Nc2nccc(-n3cc(C(N)=O)c4ccccc43)n2)c(OC)cc1N(C)CCN(C)C [Example 7, N-(2-(N-(2-(N,N-Dimethylamino)ethyl)-N-methylamino)-4-methoxy-5-(4-(3-carboxamidoindol-1-yl)pyrimidin-2-ylamino)phenyl) propenamide] | 1.1 | 1.6 | 1.2 | 2630 | 1.7 | 0.85 | –
4 | C=CC(=O)Nc1cc(Nc2nccc(-n3ccc4ccccc43)n2)c(OC)cc1N(C)CCN(C)C [Example 1] | 4.1 | 6.8 | 0.7 | 3570 | 3.1 | 2.4 | –
5 | C=CC(=O)Nc1cc(Nc2nccc(-c3n[nH]c4ccccc34)n2)c(OC)cc1N(C)CCN(C)C [Example 15, N-(2-(N-(2-(N,N-Dimethylamino)ethyl)-N-methylamino)-4-methoxy-5-(4-(indazol-3-yl)pyrimidin-2-ylamino)phenyl) propenamide] | 1.9 | 3.3 | 1.5 | 13500 | 2.9 | 1.1 | –
6 | C=CC(=O)Nc1cc(Nc2nccc(-n3c(=O)[nH]c4ccccc43)n2)c(OC)cc1N(C)CCN(C)C [Example 10, N-(2-(N-(2-(N,N-Dimethylamino)ethyl)-N-methylamino)-4-methoxy-5-(4-(2-oxo-2,3-dihydrobenzimidazol-1-yl)pyrimidin-2-ylamino)phenyl) propenamide] | 1.3 | 2.2 | 1.2 | 12000 | 1.5 | 0.91 | –
7 | C=CC(=O)Nc1cc(Nc2nccc(-n3cc(C)c4ccccc43)n2)c(OC)cc1N(C)CCN(C)C [Example 2, N-(2-(N-(2-(N,N-Dimethylamino)ethyl)-N-methylamino)-4-methoxy-5-(4-(3-methylindol-1-yl)pyrimidin-2-ylamino)phenyl) propenamide] | 7.1 | 12.3 | 1.3 | 5030 | 7.5 | 3.1 | –
8 | C=CC(=O)Nc1cc(Nc2nccc(-c3c[nH]c4c(C)cccc34)n2)c(OC)cc1N(C)CCN(C)C [Example 11, N-(2-(N-(2-(N,N-Dimethylamino)ethyl)-N-methylamino)-4-methoxy-5-(4-(7-methylindol-3-yl)pyrimidin-2-ylamino)phenyl) propenamide] | 1.5 | 2.9 | 1.3 | 4730 | 2.3 | 1 | –
9 | C=CC(=O)Nc1cc(Nc2nccc(-n3cc(CO)c4ccccc43)n2)c(OC)cc1N(C)CCN(C)C [Example 8, N-(2-(N-(2-(N,N-Dimethylamino)ethyl)-N-methylamino)-4-methoxy-5-(4-(3-(hydroxymethyl)indol-1-yl)pyrimidin-2-ylamino)phenyl) propenamide] | 2.1 | 3.5 | 1.8 | 6650 | 2.9 | 1.2 | –

Reference: US10435388B2, “Selective inhibitors of clinically important mutants of the EGFR tyrosine kinase” (CS PHARMATECH LIMITED, priority 2016, dated 2019)
